Measurements taken from patent US20240199997A1, “COMPOSITIONS COMPRISING A META-(C1-C4 ALKOXY) […]” (The Procter & Gamble Company, priority 2022, published 2024).
Like-named read-outs stand apart in the source and are kept apart here.

Columns and labels:
[1] = Headspace Method (dynamic headspace GC/MS), solution in isopropyl myristate (IPM); type: physicochemical; settings: for Air/IPM partition coef (ng/mL in air per ng/mL in IPM) / Headspace: 30° C.; for Headspace: above IPM solution of about 2.1E+06 ng/mL
Procedure: (§1) Perfume headspace data is collected for various materials according to the method provided below.
(§2) The partition coefficients are calculated by determining the amount of PRM in the headspace above a solution with a known concentration using a GC/FID-MS (Agilent 7890 and 5977A MSD) with a thermal desorption unit (Gerstel MPS2) and Dynamic Headspace Sampler (Gerstel DHS). This technique allows for automated headspace collections using the MultiPurposeSampler (MPS). The PRMs of interest are prepared at a known concentration in isopropyl myristate (IPM) or propylene glycol monomethyl ether (DPM), and 1 mL is pipetted in a 20 mL headspace vial.
(§3) DHS Conditions: The sample is tempered in the unit at 30° C. A helium stream at 10 mls/min purges 20 mL of headspace containing the analytes above the sample onto the sorbent tube (TDU) containing 25 mg of TenaxTA 35/60 (Restek cat #25701).
(§4) TDU conditions: The sorbent tube is desorbed with a program starting at 30° C. solvent vent for 2 min then ramped at 720° C./min to 270° C. and held for 8 min. The analytes are refocused on a glass bead liner at −60° C. then desorbed at a rate of 12° C./s to 270° C. onto the GC column.
(§5) GC/MS conditions: Agilent 122-5532UI column of 30 m×250 μm×0.25 μm and a flow rate of 1.5mL/min is utilized. A temperature program of 50° C. to 280° C. with a 2 min hold and a ramp rate of 12° C./min is suitable. Scan or SIM mode MSD parameters with a solvent delay for the DPM are applied to achieve appropriate detection.
(§6) Analytical standards can be obtained from Sigma Aldrich, St. Louis, MO and BioSynth, UK. A stock solution is prepared at approximately 0.5 g/L. The stock solution is then diluted to 4 to 5 concentrations ranging from approximately 0.05 g/L to 0.00005 g/L. These standard solutions are then analyzed by GC/MS. This analysis is performed by using the same TDU desorption and GC/MS conditions described above with a 1 uL liquid injection onto the TDU tube instead of the DHS collection. The amount injected on column and the area responses of the target m/z are utilized to create a calibration plot with a linear fit.
(§7) Quantification of the headspace is performed by the PRM target m/z area response of the perfume component and the linear equation of the calibration plot.
(§8) Perfume headspace data is collected for various materials according to the Headspace Method provided above in the Test Methods section. The Air/Solvent partition coefficients are determined and indexed accordingly (e.g., where the partition coefficient for ethylvanillin is set at 1.00).

[2] = Headspace Method (dynamic headspace GC/MS), solution in propylene glycol monomethyl ether (DPM); type: physicochemical; settings: for Air/DPM partition coef (ng/mL in air per ng/mL in DPM) / Headspace: 30° C.; for Headspace: above DPM solution of 1.1E+07 ng/mL
Procedure: as §1, §2, §3, §4, §5, §6, §7, §8

| Air/IPM partition coef (ng/mL in air per ng/mL in IPM) ([1]; average of two replicates) | Headspace ([1]; average of two replicates) [ng/mL] | goes into the headspace more than its structural isomer ethylvanillin ([1]; out of IPM) | Air/DPM partition coef (ng/mL in air per ng/mL in DPM) ([2]; average of three replicates) | Headspace ([2]; average of three replicates) [ng/mL] | goes into the headspace more than ethylvanillin ([2]; out of DPM) | Ethylvanillin Indexed Air/IPM partition coefficient [1] | SMILES | Ethylvanillin Indexed Air/IPM partition coefficient ([1]; partition coefficient for ethylvanillin set at 1.00, average of two replicates) | Ethylvanillin Indexed Air/DPM partition coefficient ([2]; partition coefficient for ethylvanillin set at 1.00, average of three replicates) |
| --- | --- | --- | --- | --- | --- | --- | --- | --- | --- |
| 1.21E−07 ng/mL in air per ng/mL in IPM | 0.2521 | about 6.2 × | 2.31E−07 ng/mL in air per ng/mL in DPM | 2.4678 | about 94 × |  | CCOc1cccc(C=O)c1O [ortho-Ethylvanillin, 2-hydroxy-3-ethoxybenzaldehyde] |  |  |
| 2.73E−08 ng/mL in air per ng/mL in IPM | 0.0563 |  | 1.21E−08 ng/mL in air per ng/mL in DPM | 0.1288 |  | 1.40 | COc1cc(C=O)ccc1O [Vanillin] |  |  |

| SMILES | Air/IPM partition coef (ng/mL in air per ng/mL in IPM) ([1]; average of two replicates) | Headspace ([1]; average of two replicates) [ng/mL] | goes into the headspace more than its structural isomer ethylvanillin ([1]; out of IPM) | Air/DPM partition coef (ng/mL in air per ng/mL in DPM) ([2]; average of three replicates) | Headspace ([2]; average of three replicates) [ng/mL] | goes into the headspace more than ethylvanillin ([2]; out of DPM) | Ethylvanillin Indexed Air/IPM partition coefficient [1] | Ethylvanillin Indexed Air/IPM partition coefficient ([1]; partition coefficient for ethylvanillin set at 1.00, average of two replicates) | Ethylvanillin Indexed Air/DPM partition coefficient ([2]; partition coefficient for ethylvanillin set at 1.00, average of three replicates) |
| --- | --- | --- | --- | --- | --- | --- | --- | --- | --- |
| CCOc1cc(C=O)ccc1O [Ethylvanillin] | 1.95E−08 ng/mL in air per ng/mL in IPM | 0.0402 |  | 2.45E−09 ng/mL in air per ng/mL in DPM | 0.0262 |  |  | 1.00 | 1.00 |
